pIC50: −log10 of the molar value.
Legend:
[1] = biological target: T1, MAP kinase-activated protein kinase 5 (Homo sapiens, UniProt Q8IW41); experiment: Inhibition of MAPKAPK5
T1 sequence (Q8IW41 whole entry): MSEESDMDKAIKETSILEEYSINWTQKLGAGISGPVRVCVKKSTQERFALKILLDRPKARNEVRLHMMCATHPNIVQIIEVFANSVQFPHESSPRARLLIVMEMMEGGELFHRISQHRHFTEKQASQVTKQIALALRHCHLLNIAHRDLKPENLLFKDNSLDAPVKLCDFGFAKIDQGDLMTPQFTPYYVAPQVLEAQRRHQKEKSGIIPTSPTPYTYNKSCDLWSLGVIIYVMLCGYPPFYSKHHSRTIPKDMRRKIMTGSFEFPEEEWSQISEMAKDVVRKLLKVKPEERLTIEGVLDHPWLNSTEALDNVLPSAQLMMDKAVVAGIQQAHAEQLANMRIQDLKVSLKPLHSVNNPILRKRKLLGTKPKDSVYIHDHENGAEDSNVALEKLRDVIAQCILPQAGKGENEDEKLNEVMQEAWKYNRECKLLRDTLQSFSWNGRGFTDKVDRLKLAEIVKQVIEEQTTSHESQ

[2] = biological target: T1, MAP kinase-activated protein kinase 5; experiment: Inhibition of MAPKAPK5 in synovial fibroblast from rheumatoid arthritis patient assessed as inhibition of TNF-alpha-induced MMP1 expression incubated for 30 mins prior to TNFalpha-challenge measured after 48 hrs by ELISA

pIC50 [1]	pIC50 [2]	SMILES
< 5.00		CCOc1cc(-c2cnc(Nc3ccc(N4CCOCC4)cc3)c3nccn23)ccn1
< 5.00		CN(C)c1cc(-c2cnc(Nc3ccc(N4CCOCC4)cc3)c3nccn23)ccn1
5.62	< 5.00	NC(=O)c1ccc(-c2cnc(Nc3ccc(N4CCOCC4)cc3)c3nccn23)cc1F
< 5.00		CN(c1ccc(N2CCOCC2)cc1)c1ncc(-c2cn[nH]c2)n2ccnc12
5.43		CN1CCN(c2ccc(Nc3ncc(-c4cc[nH]c(=O)c4)n4ncnc34)cc2)CC1
5.49	< 5.00	NC(=O)c1ncc(-c2cnc(Nc3ccc(N4CCOCC4)cc3)c3nccn23)s1
5.83	< 5.00	c1cn2c(-c3c[nH]nn3)cnc(Nc3ccc(N4CCOCC4)cc3)c2n1
5.55	< 5.00	NC(=O)c1cnc(-c2cnc(Nc3ccc(N4CCOCC4)cc3)c3nccn23)s1
< 5.00		c1cn2c(-c3ccc4[nH]ccc4c3)cnc(Nc3ccc(N4CCOCC4)cc3)c2n1
< 5.00	< 5.00	NS(=O)(=O)c1ccc(-c2cnc(Nc3ccc(N4CCOCC4)cc3)c3nccn23)cc1

— ChEMBL document CHEMBL1955844, “Discovery of a series of imidazopyrazine small molecule inhibitors of the kinase MAPKAPK5, that show activity using in vitro and in vivo models of rheumatoid arthritis” (Bioorg Med Chem Lett, 2012)
